Source: US12122756B2, “Biflavone compound against I-type herpes simplex virus, and preparation method therefor and use thereof” (priority 2022, dated 2024)

How the values were obtained:
HSV-I [1] = experiment: Plaque-reduction method: plaque formation in Vero cells induced by HSV-I; assay type: cell-based, Herpes simplex virus type I
Description: (2) Measurement of the inhibitory effect of drugs on the formation of plaque in Vero cells induced by HSV-I using plaque-reduction method: Vero cells were seeded into a 24-well plate and grew into a monolayer the next day. Then, the 100 PFU/0.2 ml virus solution was added to infect the cells, and a cell control group was included. After incubation with the virus, the agarose cover solution for maintenance of cells, containing different concentrations of the test drug, was replaced, followed by cultivation for additional 72 hours. The cell culture was fixed with 4% paraformaldehyde, stained with 1% crystal violet solution, washed, and dried. The plaque was counted to calculate plaque-forming inhibition ratio of the drug. [formula] 5. Study on the Action Mode of the Test Drug

HSV-I [2] = experiment: Action mode: inhibitory effect on HSV-I replication (CPE, CCK-8); assay type: cell-based, Herpes simplex virus type I
Description: (2) The inhibitory effect of drugs on HSV-I replication: Vero cells were seeded in a 96-well plate and grew into a monolayer, before adding HSV-I virus solution at 100 μl/well, followed by incubation for 1 hour. Then, the cell maintenance solution containing different concentrations of sample was replaced, and the cells were further cultured. After 72 hours, the effect on the replication of virus was determined using the CCK-8 method.

HSV-I [3] = experiment: Cytopathic effect (CPE) assay: inhibition of pathological changes of Vero cells induced by HSV-I (CCK-8); assay type: cell-based, Herpes simplex virus type I
Description: (1) Determination of the inhibitory activities of the test drugs on pathological changes of Vero cells induced by HSV-I using the cytopathic effect (CPE) assay: Vero cells were seeded in a 96-well plate and grew into a monolayer the next day. 100TCID50 HSV-I was added to infect cells, and then the cell maintenance solution containing different concentrations of the test drug was replaced, and a cell control group was included. The cells were cultured in an incubator for 72 hours. Then, the inhibitory effect of the drug on virus-induced cytopathic changes was measured using the CCK-8 assay, and thus the 50% inhibiting concentration (IC50) of the drug was calculated.

HSV-I [4] = experiment: Action mode: inhibitory effect on HSV-I adsorption (CPE, CCK-8); assay type: cell-based, Herpes simplex virus type I
Description: (1) The inhibitory effect of drugs on HSV-I adsorption: Vero cells were seeded in a 96-well plate and grew into a monolayer, before pretreatment with different concentrations of samples. Then, HSV-I virus solution was added at 100 μl/well, followed by incubation for 1 hour. Finally, the cell maintenance solution was replaced, and the cells were further cultured. After 72 hours, the effect on the adsorption of virus was determined using the CCK-8 method.

HSV-I viral keratitis = HSV-I viral keratitis model in mice, eye drops; assay type: in vivo
Description: 8-week-old C57 mice (25 mice, weighing 22 g-25 g) were used to establish HSV-I viral keratitis models in their right eyes. During the modeling process, ster[…] needles were used to make #-shaped/*-shaped/parallel scratches on the cornea of all animals' right eyes. The depth of the scratches must be in the superficial layer, and could not penetrate the stroma. The depth of the scratches for each eye was moderately uniform, and the scratches were evenly distributed, and then a fiber syringe was used to drop 4 μl of HSV-I virus solution mixed well (titer: 2.0×10^6 PFU/ml), to finish modeling. After 1 day of modeling, the right eye of the animal was scored for HSV-I viral keratitis, and 20 mice with successful and uniform modeling were selected for inclusion in the experiment, which were randomly divided into two groups: a modeling group (Ctrl) and a di-XYW compound group, with 10 mice in one group. The surface of the right eye of the animal was treated with a corresponding solvent (Ctrl group, with physiological saline as the solvent) or a di-XYW compound at a concentration of 500 μg/ml (using physiological saline as the solvent), by administering every other day. On the day of administration, each eye should be administrated 5 times, 10 μl for each time, for 2 weeks. The pathological change of keratitis was scored before eye drops (Day 0) and on days 1, 3, 7, and 14 after eye drops (that was summarized as clinical scores, with scoring criteria shown in Table 7), followed by analysis and comparison. [table]

HSV-I [5] = experiment: Action mode: direct inactivation effect on HSV-I (CPE, CCK-8); assay type: cell-based, Herpes simplex virus type I
Description: (3) The direct inactivation effect of drugs on HSV-I: Vero cells were seeded in a 96-well plate and grew into a monolayer. Different concentrations of samples were respectively mixed with the virus solution, followed by placing at 37° C. for 1 hour. Then, the solution was added the cells, and incubated for 1 hour. Then, the cell maintenance solution was replaced, and the cells were further cultured. After 72 hours, the direct inactivation effects of drugs on HSV-I was determined using the CCK-8 method. Moreover, a virus control group was set up.

[6] = Solubility (highest solubility used as starting concentration; water solubility)

COc1c(O)c(Cc2c(O)c(OC)c(O)c3c(=O)c(-c4ccc(O)c(S(=O)(=O)[O-])c4)coc23)c2occ(-c3ccc(O)c(S(=O)(=O)[O-])c3)c(=O)c2c1O.[Na+].[Na+] [Compound 2, 8,8″-methylene-di-(sodiumtectorigenin-5′-sulphonate)]
inhibitory effect on plaque formation induced by HSV-I (in words) (HSV-I [1]): significant inhibitory effect | Effect on viral replication: OD value (HSV-I [2]; 5.97 μg/ml, n = 6): 0.33 ± 0.05 | Effect on viral replication: OD value (HSV-I [2]; 11.94 μg/ml, n = 6): 0.36 ± 0.07 | Effect on viral replication: OD value (HSV-I [2]; 23.88 μg/ml, n = 6): 0.62 ± 0.05 | Effect on viral replication: OD value (HSV-I [2]; 47.45 μg/ml, n = 6): 0.80 ± 0.05 | Effect on viral replication: OD value (HSV-I [2]; 95.50 μg/ml, n = 6): 0.97 ± 0.09 | Effect on viral replication: OD value (HSV-I [2]; 191.00 μg/ml, n = 6): 0.98 ± 0.12 | Effect on viral replication: OD value (HSV-I [2]; 382.00 μg/ml, n = 6): 0.99 ± 0.02 | effect on viral replication (in words) (HSV-I [2]; CPE method): significant effect | inhibition at 5.97 µg/mL (HSV-I [2]; Human alphaherpesvirus 1, 5.97 μg/ml, n = 6, read-out: Effect on viral replication: Inhibition rate (%)): 13.1% | inhibition at 11.94 µg/mL (HSV-I [2]; Human alphaherpesvirus 1, 11.94 μg/ml, n = 6, read-out: Effect on viral replication: Inhibition rate (%)): 17.6% | inhibition at 23.88 µg/mL (HSV-I [2]; Human alphaherpesvirus 1, 23.88 μg/ml, n = 6, read-out: Effect on viral replication: Inhibition rate (%)): 50.5% | inhibition at 47.45 µg/mL (HSV-I [2]; Human alphaherpesvirus 1, 47.45 μg/ml, n = 6, read-out: Effect on viral replication: Inhibition rate (%)): 73.8% | inhibition at 95.5 µg/mL (HSV-I [2]; Human alphaherpesvirus 1, 95.50 μg/ml, n = 6, read-out: Effect on viral replication: Inhibition rate (%)): 96.2% | inhibition at 191 µg/mL (HSV-I [2]; Human alphaherpesvirus 1, 191.00 μg/ml, n = 6, read-out: Effect on viral replication: Inhibition rate (%)): 98% | inhibition at 382 µg/mL (HSV-I [2]; Human alphaherpesvirus 1, 382.00 μg/ml, n = 6, read-out: Effect on viral replication: Inhibition rate (%)): 98.8% | Average optical density (OD) (HSV-I [3]; 5.97 μg/ml, n = 6): 0.33 ± 0.04 | Average optical density (OD) (HSV-I [3]; 11.94 μg/ml, n = 6): 0.35 ± 0.05 | Average optical density (OD) (HSV-I [3]; 23.88 μg/ml, n = 6): 0.44 ± 0.07 | Average optical density (OD) (HSV-I [3]; 47.75 μg/ml, n = 6): 0.65 ± 0.06 | Average optical density (OD) (HSV-I [3]; 95.50 μg/ml, n = 6): 0.95 ± 0.04 | Average optical density (OD) (HSV-I [3]; 191.00 μg/ml, n = 6): 1.06 ± 0.05 | Average optical density (OD) (HSV-I [3]; 382.00 μg/ml, n = 6): 1.10 ± 0.03 | inhibitory effect on HSV-I induced cytopathic changes (in words) (HSV-I [3]; CPE method): significant inhibitory effect | inhibition at 5.97 µg/mL (HSV-I [3]; Human alphaherpesvirus 1, Vero, 5.97 μg/ml, n = 6, read-out: Inhibition rate (%)): -0.36% | inhibition at 11.94 µg/mL (HSV-I [3]; Human alphaherpesvirus 1, Vero, 11.94 μg/ml, n = 6, read-out: Inhibition rate (%)): 2.87% | inhibition at 23.88 µg/mL (HSV-I [3]; Human alphaherpesvirus 1, Vero, 23.88 μg/ml, n = 6, read-out: Inhibition rate (%)): 14.5% | inhibition at 47.75 µg/mL (HSV-I [3]; Human alphaherpesvirus 1, Vero, 47.75 μg/ml, n = 6, read-out: Inhibition rate (%)): 40.7% | inhibition at 95.5 µg/mL (HSV-I [3]; Human alphaherpesvirus 1, Vero, 95.50 μg/ml, n = 6, read-out: Inhibition rate (%)): 79.9% | inhibition at 191 µg/mL (HSV-I [3]; Human alphaherpesvirus 1, Vero, 191.00 μg/ml, n = 6, read-out: Inhibition rate (%)): 94% | inhibition at 382 µg/mL (HSV-I [3]; Human alphaherpesvirus 1, Vero, 382.00 μg/ml, n = 6, read-out: Inhibition rate (%)): 99.2% | IC50 (HSV-I [3]; Human alphaherpesvirus 1, against HSV-I in Vero cells, Probit regression): 54.5 µg/mL | SI (selection index = TC50/IC50) (HSV-I [3]; TC50 on Vero cells / IC50 against HSV-I): 32.117 | Effect on viral adsorption: OD value (HSV-I [4]; 5.97 μg/ml, n = 6): 0.24 ± 0.03 | Effect on viral adsorption: OD value (HSV-I [4]; 11.94 μg/ml, n = 6): 0.23 ± 0.05 | Effect on viral adsorption: OD value (HSV-I [4]; 23.88 μg/ml, n = 6): 0.24 ± 0.04 | Effect on viral adsorption: OD value (HSV-I [4]; 47.45 μg/ml, n = 6): 0.25 ± 0.04 | Effect on viral adsorption: OD value (HSV-I [4]; 95.50 μg/ml, n = 6): 0.26 ± 0.06 | Effect on viral adsorption: OD value (HSV-I [4]; 191.00 μg/ml, n = 6): 0.25 ± 0.06 | Effect on viral adsorption: OD value (HSV-I [4]; 382.00 μg/ml, n = 6): 0.24 ± 0.06 | inhibitory effect on viral adsorption (in words) (HSV-I [4]; CPE method): almost no inhibitory effect | inhibition at 5.97 µg/mL (HSV-I [4]; Human alphaherpesvirus 1, 5.97 μg/ml, n = 6, read-out: Effect on viral adsorption: Inhibition rate (%)): 4.97% | inhibition at 11.94 µg/mL (HSV-I [4]; Human alphaherpesvirus 1, 11.94 μg/ml, n = 6, read-out: Effect on viral adsorption: Inhibition rate (%)): 4.83% | inhibition at 23.88 µg/mL (HSV-I [4]; Human alphaherpesvirus 1, 23.88 μg/ml, n = 6, read-out: Effect on viral adsorption: Inhibition rate (%)): 5.22% | inhibition at 47.45 µg/mL (HSV-I [4]; Human alphaherpesvirus 1, 47.45 μg/ml, n = 6, read-out: Effect on viral adsorption: Inhibition rate (%)): 6.97% | inhibition at 95.5 µg/mL (HSV-I [4]; Human alphaherpesvirus 1, 95.50 μg/ml, n = 6, read-out: Effect on viral adsorption: Inhibition rate (%)): 7.33% | inhibition at 191 µg/mL (HSV-I [4]; Human alphaherpesvirus 1, 191.00 μg/ml, n = 6, read-out: Effect on viral adsorption: Inhibition rate (%)): 6.16% | inhibition at 382 µg/mL (HSV-I [4]; Human alphaherpesvirus 1, 382.00 μg/ml, n = 6, read-out: Effect on viral adsorption: Inhibition rate (%)): 5.39% | keratitis pathological changes and clinical score changes compared to model control group (Ctrl) (HSV-I viral keratitis; C57 mice, after 1 and 2 weeks of eye drops at 500 μg/ml, *P<0.05): statistically significant differences | therapeutic effect on HSV-I viral keratitis (in words) (HSV-I viral keratitis; C57 mice, eye drops 500 μg/ml, every other day, 5 x 10 μl per day, 2 weeks): good therapeutic effect | inhibition of pathological changes of HSV-I viral keratitis (in words) (HSV-I viral keratitis; mice, eye drops): effectively inhibit | Direct inactivation: OD value (HSV-I [5]; 5.97 μg/ml, n = 6): 0.33 ± 0.04 | Direct inactivation: OD value (HSV-I [5]; 11.94 μg/ml, n = 6): 0.39 ± 0.05 | Direct inactivation: OD value (HSV-I [5]; 23.88 μg/ml, n = 6): 0.48 ± 0.06 | Direct inactivation: OD value (HSV-I [5]; 47.45 μg/ml, n = 6): 0.55 ± 0.08 | Direct inactivation: OD value (HSV-I [5]; 95.50 μg/ml, n = 6): 0.65 ± 0.08 | Direct inactivation: OD value (HSV-I [5]; 191.00 μg/ml, n = 6): 0.90 ± 0.09 | Direct inactivation: OD value (HSV-I [5]; 382.00 μg/ml, n = 6): 1.08 ± 0.06 | direct inactivation of the virus (in words) (HSV-I [5]; CPE method): significant effect | inhibition at 5.97 µg/mL (HSV-I [5]; Human alphaherpesvirus 1, 5.97 μg/ml, n = 6, read-out: Direct inactivation: Inhibition rate (%)): 3.91% | inhibition at 11.94 µg/mL (HSV-I [5]; Human alphaherpesvirus 1, 11.94 μg/ml, n = 6, read-out: Direct inactivation: Inhibition rate (%)): 10.8% | inhibition at 23.88 µg/mL (HSV-I [5]; Human alphaherpesvirus 1, 23.88 μg/ml, n = 6, read-out: Direct inactivation: Inhibition rate (%)): 22.4% | inhibition at 47.45 µg/mL (HSV-I [5]; Human alphaherpesvirus 1, 47.45 μg/ml, n = 6, read-out: Direct inactivation: Inhibition rate (%)): 31.2% | inhibition at 95.5 µg/mL (HSV-I [5]; Human alphaherpesvirus 1, 95.50 μg/ml, n = 6, read-out: Direct inactivation: Inhibition rate (%)): 44.2% | inhibition at 191 µg/mL (HSV-I [5]; Human alphaherpesvirus 1, 191.00 μg/ml, n = 6, read-out: Direct inactivation: Inhibition rate (%)): 76% | inhibition at 382 µg/mL (HSV-I [5]; Human alphaherpesvirus 1, 382.00 μg/ml, n = 6, read-out: Direct inactivation: Inhibition rate (%)): 98.7% | solubility [6]: 1600 µg/mL
